Assay results reported in patent publication US11369577B2, “Reprogramming-based models of neurodevelopmental disorders and uses thereof” (IEO—Istituto Europeo di Oncologia S.r.l., priority 2014, dated 2022).
Structures can show the parent of a compound that is named as a salt.

Target: T1, LSD1 (Homo sapiens, UniProt O60341)
T1 construct: endogenous in cells; host or cells: Embryoid bodies formed from control human iPSC line CTR1R-C3
Experiment: Embryoid body formation assay with LSD1 inhibitor treatment, RT-qPCR of GTF2I target genes
Format: cell-based
Settings: control iPSC line, treatment for 5 days at day 0 and day 4, final concentration 5 uM (Oryzon), 10 uM (DDP26095)
Protocol: Retrotranscribed cDNAs have been obtained from 1 μg of total DNA-depleted RNA using the superscript VILO retrotranscription kit from Life Technologies according to manufacturer instructions.
For real time q-PCR analysis a total amount of cDNA corresponding to 10-50 ng of starting RNA has been used for each reaction. FAST SYBR green master mix from Life Technologies and 10 μM primers pair have been used.
10 uM RA has been added at day 0 or at day 4. At day 1 EBs have been plated on a low attachment dish and media was replaced with KO-DMEM (+P/S+Glut)(EB media) 20% FBS containing. […] Next, RNA extraction and cDNA preparation has been performed as described above.

`N[C@@H]1C[C@H]1c1ccc(NC(=O)c2cccc(N3CCOC3=O)c2)cc1` (relative stereo) [DDP26095, N-[4-[trans-2-aminocyclopropyl]phenyl]-3-(2-oxooxazolidin-3-yl)benzamide hydrochloride] was tested, and the “BEND4 mRNA level (RT-qPCR, percentage of GAPDH) upon irreversible LSD1 inhibition” value was “increased”.
`Cl.N[C@H]1CC[C@H](N[C@@H]2C[C@H]2c2ccccc2)CC1` [Oryzon, (trans)-N1-((1R,2S)-2-phenylcyclopropyl)cyclohexane-1,4-diamine hydrochloride] was tested, and the “BEND4 mRNA level (RT-qPCR, percentage of GAPDH) upon irreversible LSD1 inhibition” value was “increased”.
